Drawing on ChEMBL document CHEMBL5325424, “Structural design, synthesis, and anti-Trypanosomatidae profile of new Pyridyl-thiazolidinones” (Eur J Med Chem, 2023), this text covers CC50, IC50 and selectivity ratio for 22 compounds.

Series [1] in a line: Cytotoxicity against mouse RAW264.7 cells incubated for 48 hrs by MTT assay. Type of series: toxicity, cell-based.
In series [2] the test system is Leishmania amazonensis. Kind of series: Antileishmanial activity against Leishmania amazonensis WHOM/00 LTB 0016 amastigotes infected in mouse RAW264.7 cells assessed as parasite growth inhibition incubated for 24 hrs by panoptic staining based assay. The following applies: WHOM/00 LTB 0016, RAW264.7, 24 h. Type of series: functional, organism-based.
Series [3] can be described thus: Selectivity index, ratio of CC50 for mouse RAW264.7 cells to IC50 for Trypanosoma cruzi Tulahuen amastigotes infected in mouse L929 cells. Type of series: toxicity, cell-based. The following applies: read-out: Ratio CC50/IC50.
Series [4] deals with Trypanosoma cruzi. Kind of series: Antitrypanosomal activity against Trypanosoma cruzi Y trypomastigotes infected in African green monkey Vero cells assessed as parasite growth inhibition incubated for 24 hrs by hemocytometry. Type of series: functional, organism-based.
Series [5] in a line: Selectivity index, ratio of CC50 for mouse RAW264.7 cells to IC50 for Trypanosoma cruzi Y trypomastigotes infected in African green monkey Vero cells. In kind it is toxicity. The note with it: read-out: Ratio CC50/IC50.
Series [6] has as its system Leishmania amazonensis. Kind of series: Antileishmanial activity against Leishmania amazonensis WHOM/00 LTB 0016 promastigotes assessed as parasite growth inhibition incubated for 72 hrs. In kind it is functional, organism-based. The following applies: WHOM/00 LTB 0016, 72 h.
Series [7] can be described thus: Selectivity index, ratio of CC50 for mouse RAW264.7 cells to IC50 for Leishmania amazonensis WHOM/00 LTB 0016 amastigotes infected in mouse RAW264.7 cells. In kind it is toxicity, cell-based. The following applies: read-out: Ratio CC50/IC50.
Series [8] is described as follows: Selectivity index, ratio of CC50 for mouse RAW264.7 cells to IC50 for Leishmania amazonensis WHOM/00 LTB 0016 promastigotes. Type of series: toxicity. The note with it: read-out: Ratio CC50/IC50.
The test system of series [9] is Trypanosoma cruzi. Kind of series: Antitrypanosomal activity against Trypanosoma cruzi Tulahuen amastigotes infected in mouse L929 cells assessed as parasite growth inhibition measured after 7 days by CPRG/Nonidet based assay. In kind it is functional, organism-based. The note with it: L929, 168 h.

`C/C(=N\N=C1/SCC(=O)N1c1ccccc1)c1ccncc1` showed a CC50 at 48 h in series [1] of 155 µM. Besides, the IC50 in [2] was 323 µM; in series [4], 322 µM; in series [6], 644 µM; in series [9], 0.62 µM. Moreover, the selectivity ratio was determined as 250 in [3], 0.5 in series [5], 0.48 in series [7] and 0.2 in series [8].
`C/C(=N\N=C1/SCC(=O)N1C)c1ccncc1` returned a CC50 at 48 h in series [1] of 426 µM. Moreover, the IC50 in [2] was 403 µM; in series [4], 403 µM; in series [6], 806 µM; in series [9] it was 7.59 µM. Also, the selectivity ratio in series [3] amounted to 56.2; in series [5], 1.1; in [7], 1.05; in series [8], 0.5.
In [1], `C/C(=N\N=C1/SCC(=O)N1C)c1ccccn1` registered a CC50 at 48 h of 291 µM. Also, the IC50 in [2] is 80.5 µM; in [4], 111 µM; in [6], 506 µM; in [9], 80.5 µM. Further, the selectivity ratio came to 3.61 in series [3], 2.6 in series [5], 3.61 in series [7] and 0.6 in series [8].
The compound `CN1C(=O)C(C)(C)S/C1=N/N=C/c1ccccn1` came in with a CC50 at 48 h in [1] of 387 µM. The IC50 came to 380 µM in series [2], 53.9 µM in [4], 38.3 µM in [6] and 0.81 µM in [9]. For the same compound, the selectivity ratio in [3] amounted to 477; in [5], 7.2; in series [7], 1.01; in series [8], 10.1.
With `CNC(=S)N/N=C(\C)c1ccccn1`, the midpoint of cytotoxicity in series [1], the CC50 at 48 h, lay at 7.49 µM. Moreover, the IC50 in series [2] was found to be 27.2 µM; in [4], 84.4 µM; in [6] it was 69.5 µM; in series [9] it was 0.76 µM. The selectivity ratio in [3] worked out at 9.75; in series [5], 0.08; in series [7], 0.27; in [8], 0.1.
`CC1(C)S/C(=N/N=C/c2ccccn2)NC1=O` had a CC50 at 48 h in series [1] of 449 µM. Also, the IC50 came to 403 µM in series [2], 89.5 µM in [4], 123 µM in [6] and 1.61 µM in series [9]. For the same compound, the selectivity ratio was 279 in series [3], 5 in series [5], 1.11 in series [7] and 3.7 in series [8].
On to `O=C1CS/C(=N/N=C/c2ccccn2)N1`, for which the CC50 at 48 h in [1] was determined as 486 µM. For the same compound, the IC50 in series [2] is 62.8 µM; in series [4] it was 11.3 µM; in series [6], 80.6 µM; in series [9] it was 8.21 µM. Besides, the selectivity ratio in [3] worked out at 59.3; in series [5], 42.6; in [7], 7.74; in [8], 6.
Compound `C/C(=N\N=C1/NC(=O)C(C(C)C)S1)c1ccncc1` (configuration not stated) came in with a CC50 at 48 h in [1] of 179 µM. Further, the IC50 in series [2] worked out at 72.4 µM; in [4], 362 µM; in [6], 724 µM; in series [9], 72.4 µM. Further, the selectivity ratio in [3] came out at 2.46; in series [5], 0.5; in [7] it was 2.46; in series [8], 0.2.
In turn, `O=C1CS/C(=N/N=C/c2ccccn2)N1c1ccccc1` displayed a CC50 at 48 h in [1] of 61.9 µM. The IC50 is 337 µM in series [2], 70.9 µM in [4], 675 µM in series [6] and 3.81 µM in series [9]. The selectivity ratio turned out to be 16.2 in series [3], 0.9 in series [5], 0.18 in series [7] and 0.1 in series [8].
Regarding `C/C(=N\NC(N)=S)c1ccccn1`, half-maximal cytotoxicity in series [1] (CC50 at 48 h) was put at 16.1 µM. The IC50 in series [2] was 515 µM; in series [4] it was 138 µM; in series [6] it was 20 µM; in [9], 1.39 µM. In addition, the selectivity ratio was 11.6 in series [3], 0.11 in [5], 0.03 in series [7] and 0.8 in [8].
The compound `C/C(=N\NC(=S)Nc1ccccc1)c1ccncc1` displayed a CC50 at 48 h in series [1] of 740 µM. In addition, the IC50 in series [2] was 370 µM; in series [4], 1.27 µM; in series [6] it was 41.4 µM; in [9] it was 2.88 µM. The selectivity ratio was 256 in [3], 583 in series [5], 2 in series [7] and 17.9 in series [8].
In turn, `CN1C(=O)CS/C1=N/N=C/c1ccccn1` had a CC50 at 48 h in series [1] of 274 µM. In addition, the IC50 in series [2] was determined as 427 µM; in series [4], 427 µM; in [6], 854 µM; in series [9], 5.81 µM. The selectivity ratio in series [3] was 47.1; in series [5] it was 0.6; in series [7], 0.64; in series [8], 0.3.
In [1], `C/C(=N\N=C1/SCC(=O)N1c1ccccc1)c1ccccn1` showed a CC50 at 48 h of 223 µM. In addition, the IC50 in [2] came out at 322 µM; in [4], 4.2 µM; in series [6], 259 µM; in [9] it was 8.74 µM. The selectivity ratio in [3] is 25.5; in series [5], 53.2; in series [7] it was 0.69; in [8], 0.9.
Compound `CNC(=S)N/N=C/c1ccccn1` registered a CC50 at 48 h in series [1] of 55.1 µM. Also, the IC50 in [2] is 515 µM; in series [4], 2.04 µM; in series [6], 13.8 µM; in [9], 5.66 µM. In addition, the selectivity ratio in [3] was 9.72; in series [5] it was 27; in series [7], 0.1; in series [8], 3.97.
As for `C/C(=N\N=C1\SC(C(C)C)C(=O)N1c1ccccc1)c1ccncc1` (configuration not stated), the CC50 at 48 h in [1] was determined as 296 µM. Besides, the IC50 in series [2] turned out to be 5.7 µM; in series [4], 1.5 µM; in series [6] it was 22.4 µM; in series [9], 0.89 µM. Further, the selectivity ratio turned out to be 332 in series [3], 197 in series [5], 51.9 in series [7] and 13.2 in series [8].
`CC(C)C1S/C(=N/N=C/c2ccccn2)NC1=O` (configuration not stated) gave a CC50 at 48 h in series [1] of 256 µM. In addition, the IC50 stood at 8.77 µM in series [2], 43.9 µM in series [4], 40.3 µM in series [6] and 0.84 µM in series [9]. In addition, the selectivity ratio in series [3] was 305; in series [5], 5.8; in series [7] it was 29.2; in [8], 6.4.
The compound `C/C(=N\N=C1/NC(=O)CS1)c1ccncc1` gave a CC50 at 48 h in series [1] of 276 µM. The IC50 in [2] stood at 427 µM; in series [4], 185 µM; in series [6] it was 854 µM; in series [9] it was 6.3 µM. The selectivity ratio stood at 43.8 in series [3], 1.5 in series [5], 0.64 in series [7] and 0.3 in series [8].
For the compound `C/C(=N\N=C1\NC(=O)CS1)c1ccccn1`, half-maximal cytotoxicity in series [1] (CC50 at 48 h) was put at 134 µM. In addition, the IC50 is 241 µM in series [2], 38 µM in [4], 15.1 µM in series [6] and 9.15 µM in [9]. Besides, the selectivity ratio in series [3] came out at 14.7; in [5] it was 3.5; in [7], 0.55; in series [8] it was 8.9.
Compound `C/C(=N\N=C1\SC(C(C)C)C(=O)N1C)c1ccncc1` (configuration not stated) yielded a CC50 at 48 h in series [1] of 356 µM. Further, the IC50 in series [2] came out at 68.9 µM; in series [4], 344 µM; in series [6], 689 µM; in [9], 68.9 µM. Moreover, the selectivity ratio was determined as 5.17 in series [3], 1 in [5], 5.17 in [7] and 0.5 in [8].
Take `C/C(=N\NC(=S)Nc1ccccc1)c1ccccn1`: in series [1], the CC50 at 48 h is 5.77 µM. Besides, the IC50 in [2] was 85.5 µM; in [4], 5.77 µM; in series [6], 41.4 µM; in [9] it was 0.07 µM. For the same compound, the selectivity ratio in series [3] was 82.4; in series [5] it was 1; in [7] it was 0.06; in series [8], 0.13.
The compound `N/C(S)=N/N=C/c1ccccn1` returned a CC50 at 48 h in [1] of 8.65 µM. Besides, the IC50 in series [2] came out at 555 µM; in series [4], 99.8 µM; in series [6], 15.9 µM; in [9], 1.6 µM. Further, the selectivity ratio turned out to be 5.37 in series [3], 0.08 in series [5], 0.01 in [7] and 0.54 in series [8].
`CC(C)C1S/C(=N/N=C/c2ccccn2)N(C)C1=O` (configuration not stated): the midpoint of cytotoxicity in series [1], the CC50 at 48 h, lay at 267 µM. Moreover, the IC50 worked out at 18.6 µM in [2], 11 µM in series [4], 20.2 µM in [6] and 0.75 µM in series [9]. The selectivity ratio in [3] was found to be 355; in series [7], 14.3; in [8], 13.2.

Broadly, the CC50 is the concentration giving 50% cytotoxicity. Broadly, the IC50 is the concentration at which inhibition is half-maximal.
